In patent US20120165304A1, “6,7,8,9-Tetrahydro-5H-1,4,7,10a-tetraaza-cyclohept[f]indene derivatives, pharmaceutical compositions containing these compounds, their use and processes for preparing them” (BOEHRINGER INGELHEIM INTERNATIONAL GMBH, priority 2008, published 2012):

Each compound was assayed against human 5-HT2C receptor (Homo sapiens, UniProt P28335, I156V/I160V/N158S) (assay: cell-based).
Sequence of human 5-HT2C receptor (P28335 33-458 I156V/N158S/I160V limits assumed): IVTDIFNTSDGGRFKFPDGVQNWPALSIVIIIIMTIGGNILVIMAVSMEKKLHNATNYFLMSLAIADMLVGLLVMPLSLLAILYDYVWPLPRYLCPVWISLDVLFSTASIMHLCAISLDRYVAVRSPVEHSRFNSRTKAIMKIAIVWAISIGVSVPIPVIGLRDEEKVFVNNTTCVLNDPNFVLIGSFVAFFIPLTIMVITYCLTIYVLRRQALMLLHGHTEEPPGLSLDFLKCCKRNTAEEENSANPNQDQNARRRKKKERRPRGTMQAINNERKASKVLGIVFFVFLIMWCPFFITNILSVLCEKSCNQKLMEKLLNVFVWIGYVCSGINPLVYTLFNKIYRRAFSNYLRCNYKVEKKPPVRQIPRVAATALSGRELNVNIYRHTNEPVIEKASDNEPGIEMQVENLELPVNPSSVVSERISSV
With Cc1cnn2c(N3CC(C(=O)N4CCC5(CCCC5)C4)C3)c3c(nc12)CCNCC3 [Example 31.248] the EC50 was 0.025 µM. CC(C)(C)CNC(=O)C1CN(c2c3c(nc4ccnn24)CCNCC3)C1 [Example 37.76] showed an EC50 of 0.065 µM. In the case of O=C(C1CN(c2c3c(nc4ccnn24)CCNCC3)C1)N1CCC2(CCCC2)C1 [Example 31.123], the EC50 is reported as 0.009 µM. O=C(NCc1ccccc1)C1CCN(c2c3c(nc4ccnn24)CCNCC3)CC1 [Example 1.24] gave an EC50 of 1.31 µM. CN1CCc2nc3ccnn3c(N3CC(C(=O)N4CCC(C#N)C4)C3)c2CC1 (centres unmarked) [Example 36.44] was tested, and the EC50 was 0.214 µM. With CC(C)C(C)NC(=O)C1CN(c2c3c(nc4ccnn24)CCNCC3)C1 (centres unmarked) [Example 37.77] the EC50 was 0.095 µM. Compound Fc1ccc(OCC2CN(c3c4c(nc5ccnn35)CCNCC4)C2)cc1Cl [Example 15.11] has an EC50 of 0.02 µM. For CO[C@H]1CCN(C(=O)C2CN(c3c4c(nc5ccnn35)CCN(C)CC4)C2)C1 [Example 36.41], the EC50 was 0.337 µM. Cc1ccccc1N1CCN(C(=O)C2CN(c3c4c(nc5ccnn35)CCNCC4)C2)CC1 [Example 37.37] gave an EC50 of 0.009 µM. CN1CCc2nc3ccnn3c(N3CC(C(=O)NCCCN4CC[C@@H](F)C4)C3)c2CC1 [Example 36.32] gave an EC50 of 0.288 µM. C#CC(C)NC(=O)C1CN(c2c3c(nc4ccnn24)CCNCC3)C1 (centres unmarked) [Example 37.109] was tested, and the EC50 was 0.079 µM. CCCCn1c(C2CN(c3c4c(nc5ccnn35)CCNCC4)C2)nc2ccccc21 [Example 34.26] gave an EC50 of 1.15 µM. Work on COc1cc(F)ccc1OCC1CN(c2c3c(nc4ccnn24)CCNCC3)C1 [Example 15.8] yielded an EC50 of 0.006 µM. In the case of COc1cccc(OC2CN(c3c4c(nc5ccnn35)CCNCC4)C2)c1Cl [Example 35.33], the EC50 is reported as 0.09 µM. O=C(C1CN(c2c3c(nc4ccnn24)CCNCC3)C1)N1CCC(Cc2ccc(Cl)cc2)C1 (centres unmarked) [Example 31.120] showed an EC50 of 0.103 µM. Work on O=C(C1CN(c2c3c(nc4ccnn24)CCNCC3)C1)N1CCCC(C2CCCCC2)C1 (centres unmarked) [Example 31.70] yielded an EC50 of 0.175 µM. CN(Cc1ccc2ccccc2c1)C(=O)C1CN(c2c3c(nc4ccnn24)CCNCC3)C1 [Example 31.169] was tested, and the EC50 was 0.033 µM. In the case of CCN1CCCC1CNC(=O)C1CN(c2c3c(nc4ccnn24)CCNCC3)C1 (centres unmarked) [Example 37.90], the EC50 is reported as 0.012 µM. Work on c1cc2nc3c(c(N4CCOCC4)n2n1)CCNCC3 [Example 7, 10-Morpholin-4-yl-6,7,8,9-tetrahydro-5H-1,4,7,10a-tetraaza-cyclohepta[f]indene] yielded an EC50 of 2.58 µM. Work on O=C(NCC1CCOC1)C1CN(c2c3c(nc4ccnn24)CCNCC3)C1 (centres unmarked) [Example 37.61] yielded an EC50 of 0.064 µM. O=C(C1CN(c2c3c(nc4ccnn24)CCNCC3)C1)N1CCCC(c2ccccc2F)C1 (centres unmarked) [Example 31.117] gave an EC50 of 0.291 µM. Work on O=C(C1CN(c2c3c(nc4ccnn24)CCNCC3)C1)N1CCN(CC2CC2)CC1 [Example 37.17] yielded an EC50 of 0.003 µM. Compound CC1CCN(C(=O)C2CN(c3c4c(nc5ccnn35)CCN(C)CC4)C2)C1 (centres unmarked) [Example 36.42] has an EC50 of 0.741 µM. With COc1ccc(Cl)c(OCC2CN(c3c4c(nc5ccnn35)CCNCC4)C2)c1 [Example 15.27] the EC50 was 0.007 µM. For c1ccc(COC2CN(c3c4c(nc5ccnn35)CCNCC4)C2)nc1 [Example 20.15], the EC50 was 0.18 µM. With O=C(C1CN(c2c3c(nc4ccnn24)CCNCC3)C1)N1CC[C@H](Oc2ccccc2)C1 [Example 31.212] the EC50 was 0.034 µM. CC(=O)NC1CCN(C(=O)C2CN(c3c4c(nc5ccnn35)CCN(C)CC4)C2)CC1 [Example 36.28] gave an EC50 of 0.38 µM. In the case of CCN1CCN(C(=O)C2CN(c3c4c(nc5ccnn35)CCNCC4)C2)CC1=O [Example 37.65], the EC50 is reported as 0.005 µM. In the case of CC(=O)NC1CCN(C(=O)C2CN(c3c4c(nc5ccnn35)CCNCC4)C2)CC1 [Example 37.29], the EC50 is reported as 0.01 µM. For O=C(C1CN(c2c3c(nc4ccnn24)CCNCC3)C1)N1CC[C@H]2CCCC[C@@H]2C1 [Example 31.130], the EC50 was 0.057 µM. In the case of Cc1cnn2c(N3CC(C(=O)N4CCCC(F)(F)C4)C3)c3c(nc12)CCNCC3 [Example 31.238], the EC50 is reported as 0.013 µM. In the case of Fc1cc(Cl)ccc1OC1CN(c2c3c(nc4ccnn24)CCNCC3)C1 [Example 35.22], the EC50 is reported as 0.082 µM.
